Test results as given in paper PMC10252594 (Cancers, 2023).
Marks after values point to notes of the source that are not given here.

How the values were obtained:
[1] = test system: PC-3 (AR−) cells; parameters: method as in earlier work; conditions: ref 52 Furuya et al.; cited from earlier work
[2] = test system: LNCaP (AR+) cells; parameters: method as in earlier work; conditions: ref 52 Furuya et al.; cited from earlier work
[3] = test system: PC-3 xenograft; parameters: method as in PMID 34681843; conditions: PC-3 xenograft, 4 mg/kg IP; cited from earlier work
[4] = test system: LAPC-4 cells; experiment: LAPC-4 cell viability proliferation and combination index assays (MTS, 6 days); format: cell-based, human; conditions: LAPC-4, six days
Method: LAPC-4 cells (1 × 10^4 cells/well) were seeded in triplicate in 96-well plates in IMDM (Iscove’s modified Dulbecco’s medium) (90 μL) supplemented (v/v) with 5% fetal FBS, 1% L-glutamine, 1% insulin, and 1% penicillin/streptomycin. The cells were incubated at 37 °C in a 5% CO2 humidified atmosphere for 24 h. […] After 6 days of incubation, the cell proliferation was determined by adding 10 µL of MTS followed by incubation at 37 °C for 4 h. Plates were then analyzed at 490 nm using a Tecan M-200 microplate reader (Männedorf, Switzerland). Using GraphPad Prism 7 software, the IC50 values were calculated. The values represent the average of two independent experiments performed in triplicate. According to the Chou–Talalay method and using the following formula, the CI (combination) was calculated. CI=(D)1/(DX)1+(D)2/(DX)2
Denominators (DX)l and (DX)2 are the doses of individual drugs required to achieve a given effect level, and numerators (D)1 and (D)2 are the concentrations of each drug present in combination to trigger the same effect level. When the drugs interact additively, CI = 1, but a CI < 1 indicates a synergistic interaction, and a CI > 1 indicates an antagonistic effect.

[5] = test system: LAPC-4 xenografts
Text: The xenograft experiment was approved by the Université Laval Animal Care Committee (Comité de Protection des Animaux de l’Université Laval, Québec, QC, Canada) and carried out in an animal facility approved by the Canadian Council on Animal Care (CCAC). Homozygous male Balb/c athymic nude mice (~42 days old, weighing approximately 28 g) were obtained from Charles River Inc. (Saint-Constant, QC, Canada) and housed (4 to 5) in vinyl micro-isolated ventilated cages equipped with air lids. Cages were kept in laminar airflow hoods and maintained in pathogen-limiting conditions. The animals were housed under a controlled environment at 22 ± 3 °C with 50 ± 20% relative humidity and light set at 12 h/day (light on at 07:15) during the acclimatization and study periods. Sterile water and rodent food (Rodent Diet #T.2018.15, Harlan Teklad, Madison, WI, USA) were provided ad libitum.
After an acclimatization period of 5 days, the mice were inoculated into both flanks by subcutaneous (SC) injection of 4 × 10^6 LAPC-4 cells (Passage 14) in 0.1 mL of growth medium containing 50% Matrigel (BD Biosciences, Mississauga, ON, Canada) via a 2.5-cm long 22-gauge needle. Two weeks later, mice that developed tumors were randomized according to tumor volume, divided into […] groups (Gr-1 to Gr-8), and treated over a period of 28 days. A bilateral orchiectomy was performed under isoflurane-induced anesthesia for Gr-1 but not for Gr-2 to Gr-8. Both Gr-1 (CTX control (CTL), 9 mice, 16 tumors) and Gr-2 (intact CTL, 9 mice, 18 tumors) were treated with 0.1 mL of the vehicle alone (8% DMSO/92% propylene glycol (PG) administered by gavage (PO). Gr-3 (30 mg/kg/PO, 10 mice, 19 tumors) received 0.843 mg of RM-581. Gr-4 (10 mg/kg/PO, 10 mice, 20 tumors) received 0.281 mg of RM-581. Gr-5 (3 mg/kg/PO, 10 mice, 18 tumors) received 0.084 mg of RM-581. Gr-6 (60 mg/kg/SC, 9 mice, 18 tumors) received 1.686 mg of abiraterone. Gr-7 (60 mg/kg/PO, 9 mice, 17 tumors) received 1.686 mg of abiraterone acetate. Gr-8 (4 mg/kg/IP, 9 mice, 17 tumors) received 0.112 mg of docetaxel.
RM-581 and abiraterone acetate were administered six days a week PO; abiraterone was administered six days a week SC; and docetaxel was administered twice a week by intraperitoneal (IP) injection. RM-581 was first dissolved in DMSO, and thereafter we added PG to obtain the appropriate concentration in the vehicle fluid (8% DMSO/92% PG). Abiraterone acetate and abiraterone were dissolved in 0.3% hydroxypropyl cellulose in saline (0.9% NaCl), while docetaxel was first dissolved in DMSO, and thereafter we added phosphate-buffered saline (PBS) to obtain the proper concentration in the carrier fluid (0.5% DMSO/99.5% PBS). All solutions were prepared one day prior to the initiation of treatment and stored at 4 °C under constant agitation.
The mice were weighed at the start and end of the protocol. Tumor area (mm^2) was calculated twice a week using two perpendicular diameters (L and W), which were recorded using a caliper, and the formula L/2 × W/2 × π. The area measured on the first day of treatment was fixed at 100%. At the end of the studies and 3 h after the last treatment, the mice were terminally anesthetized, and their final body weights were measured. Tumors, liver, kidney, and total prostate were collected from mice during necropsy, while blood was collected by cardiac puncture. Tissues and plasma were immediately frozen at −80 °C until analysis.

[6] = test system: LAPC-4 cells; experiment: Total cholesterol in LAPC-4 cells (kit); format: cell-based, human; conditions: 18, 36, or 72 h; RM-581 2 μM or atorvastatin 10 μM
Method: A cholesterol quantification kit provided by Sigma-Aldrich (Catalog Number MAK043) was used following the manufacturer’s instructions to determine the concentration of total cholesterol, free cholesterol, and cholesteryl ester in samples. The cholesterol contents were measured in samples from two different protocols. […] Secondly, in tumor, liver, and plasma obtained at the end of the LAPC-4 xenograft experiment (control group and the group treated with RM-581 at 10 mg/kg/PO).

[7] = test system: LAPC-4 cells; experiment: Gene expression study by qPCR; format: cell-based, human; conditions: RM-581 5 µM or atorvastatin 10 µM, CTL fixed at 1.0
Method: LAPC-4 cells (3 × 10^5) were treated with RM-581 (1, 2, and 5 µM) at different times (6, 18, 24, and 36 h) and the expression of various genes was determined as previously reported. Primer sequences used for the analysis of each gene are reported in Table S3 (Supplementary Materials).

[8] = test system: androgen-dependent and androgen-independent PC cell lines; conditions: cited from earlier work

## CCC(C)(C)C(=O)O[C@H]1C[C@@H](C)C=C2C=C[C@H](C)[C@H](CC[C@@H]3C[C@@H](O)CC(=O)O3)[C@H]21 [simvastatin]
[1]
  LDLR expression: decreased
  intracellular cholesterol ratio: decreased
[2]
  LDLR expression: increased
  intracellular cholesterol ratio: without affecting

## CC(=O)O[C@@]12CO[C@@H]1C[C@H](O)[C@@]1(C)C(=O)[C@H](O)C3=C(C)[C@@H](OC(=O)[C@H](O)[C@@H](NC(=O)OC(C)(C)C)c4ccccc4)C[C@@](O)([C@@H](OC(=O)c4ccccc4)[C@H]21)C3(C)C [docetaxel, reference compound]
[3]
  block of tumor growth: 35%
[4]; between 0.01 and 10 µM
  cell growth plateau: around 25%
[5]; 4 mg/kg IP twice a week
  effect on tumor growth: no significant effect

## C[C@]12CC[C@H](O)CC1=CC[C@@H]1[C@@H]2CC[C@]2(C)C(c3cccnc3)=CC[C@@H]12 [abiraterone, reference compound]
[4]; Homo sapiens, LAPC4, 144 h, single drugs and 1:1 combinations, read-out: IC50 (Figure 2B)
  IC50: 11.5 µM
[5]; 60 mg/kg SC
  day of significantly different effect vs intact control: 18 days
[5]; 60 mg/kg SC, 6 days a week, day 28
  tumor reduction compared to intact control group: 40%

## CC(C)c1c(C(=O)Nc2ccccc2)c(-c2ccccc2)c(-c2ccc(F)cc2)n1CC[C@@H](O)C[C@@H](O)CC(=O)O [atorvastatin, reference compound]
[6]
  Total cholesterol in LAPC-4 cells vs untreated cells: did not show a significant difference
[7]; 6 h
  ACAT1 mRNA expression: 1.0
  ACLY mRNA expression: 1.0
  FASN mRNA expression: 1.2
  HMGCR mRNA expression: 1.4 *
  HMGCS1 mRNA expression: 1.3
  LDLR mRNA expression: 1.0
  MVD mRNA expression: 1.6 *
  MVK mRNA expression: 1.5
  SCD1 mRNA expression: 1.4
[7]; 18 h
  ACAT1 mRNA expression: 1.0
  ACLY mRNA expression: 1.2
  FASN mRNA expression: 1.3
  HMGCR mRNA expression: 1.8 *
  HMGCS1 mRNA expression: 3.5 *
  LDLR mRNA expression: 1.8 *
  MVD mRNA expression: 2.6 *
  MVK mRNA expression: 2.0 *
  SCD1 mRNA expression: 1.6 *
[7]; 24 h
  ACAT1 mRNA expression: 1.0
  ACLY mRNA expression: 1.9 *
  FASN mRNA expression: 1.7 *
  HMGCR mRNA expression: 2.6 *
  HMGCS1 mRNA expression: 2.7 *
  LDLR mRNA expression: 1.8 *
  MVD mRNA expression: 3.5 *
  MVK mRNA expression: 2.5 *
  SCD1 mRNA expression: 2.6 *
[7]; 36 h
  ACAT1 mRNA expression: 1.1
  ACLY mRNA expression: 2.2 *
  FASN mRNA expression: 1.8 *
  HMGCR mRNA expression: 3.5 *
  HMGCS1 mRNA expression: 2.0 *
  LDLR mRNA expression: 2.5 *
  MVD mRNA expression: 4.0 *
  MVK mRNA expression: 2.5 *
  SCD1 mRNA expression: 4.5 *

## CC(=O)O[C@H]1CC[C@@]2(C)C(=CC[C@@H]3[C@@H]2CC[C@]2(C)C(c4cccnc4)=CC[C@@H]32)C1 [abiraterone acetate, reference compound]
[8]
  IC50: > 10 µM
[5]; 60 mg/kg PO, day 28
  effect on tumor compared to intact group: no longer significant
